Experimental data from ChEMBL document CHEMBL5120927, “LEGO-Lipophosphonoxins: A Novel Approach in Designing Membrane Targeting Antimicrobials” (J Med Chem, 2022).

tested on: Enterococcus faecalis; assay: Antibacterial activity against Enterococcus faecalis ATCC 29212 = CCM 4224 assessed as inhibition of bacterial growth incubated for 24 hrs by microdilution assay; type: functional; conditions: not given

Row | SMILES | MIC [µg/mL]
1 | CCCCCCOP(=O)(CCN(CCCN)CCCN)OCCCCCCCCOP(=O)(CCN(CCCN)CCCN)OCCCCCC.Cl.Cl.Cl.Cl.Cl.Cl (stereo not drawn) | 16
2 | CCCCCCOP(=O)(CCN(CCCN)CCCN)OCCCCCCCCCCOP(=O)(CCN(CCCN)CCCN)OCCCCCC.Cl.Cl.Cl.Cl.Cl.Cl (stereo not drawn) | 4

tested on: Staphylococcus aureus; assay: Antibacterial activity against Staphylococcus aureus ATCC 29213 = CCM 4223 assessed as inhibition of bacterial growth incubated for 24 hrs by microdilution assay; type: functional; conditions: not given

Row | SMILES | MIC [µg/mL]
3 | CCCCCCOP(=O)(CCN(CCCN)CCCN)OCCCCCCCCOP(=O)(CCN(CCCN)CCCN)OCCCCCC.Cl.Cl.Cl.Cl.Cl.Cl (stereo not drawn) | 1
4 | CCCCCCOP(=O)(CCN(CCCN)CCCN)OCCCCCCCCCCOP(=O)(CCN(CCCN)CCCN)OCCCCCC.Cl.Cl.Cl.Cl.Cl.Cl (stereo not drawn) | 0.5

tested on: Staphylococcus aureus; assay: Antibacterial activity against Staphylococcus aureus ATCC 29213 = CCM 4223 assessed as inhibition of bacterial growth incubated for 24 hrs in presence of BSA by microdilution assay; type: functional; conditions: not given

Row | SMILES | MIC [µg/mL]
5 | CCCCCCOP(=O)(CCN(CCCN)CCCN)OCCCCCCCCOP(=O)(CCN(CCCN)CCCN)OCCCCCC.Cl.Cl.Cl.Cl.Cl.Cl (stereo not drawn) | 2
6 | CCCCCCOP(=O)(CCN(CCCN)CCCN)OCCCCCCCCCCOP(=O)(CCN(CCCN)CCCN)OCCCCCC.Cl.Cl.Cl.Cl.Cl.Cl (stereo not drawn) | 3

tested on: Escherichia coli; assay: Antibacterial activity against Escherichia coli ATCC 25922 = CCM 3954 assessed as inhibition of bacterial growth incubated for 24 hrs by microdilution assay; type: functional; conditions: not given

Row | SMILES | MIC [µg/mL]
7 | CCCCCCOP(=O)(CCN(CCCN)CCCN)OCCCCCCCCOP(=O)(CCN(CCCN)CCCN)OCCCCCC.Cl.Cl.Cl.Cl.Cl.Cl (stereo not drawn) | 1
8 | CCCCCCOP(=O)(CCN(CCCN)CCCN)OCCCCCCCCCCOP(=O)(CCN(CCCN)CCCN)OCCCCCC.Cl.Cl.Cl.Cl.Cl.Cl (stereo not drawn) | 0.5

tested on: Escherichia coli; assay: Antibacterial activity against Escherichia coli ATCC 25922 = CCM 3954 assessed as inhibition of bacterial growth incubated for 24 hrs in presence of BSA by microdilution assay; type: functional; conditions: not given

Row | SMILES | MIC [µg/mL]
9 | CCCCCCOP(=O)(CCN(CCCN)CCCN)OCCCCCCCCOP(=O)(CCN(CCCN)CCCN)OCCCCCC.Cl.Cl.Cl.Cl.Cl.Cl (stereo not drawn) | 8
10 | CCCCCCOP(=O)(CCN(CCCN)CCCN)OCCCCCCCCCCOP(=O)(CCN(CCCN)CCCN)OCCCCCC.Cl.Cl.Cl.Cl.Cl.Cl (stereo not drawn) | 1

tested on: Pseudomonas aeruginosa; assay: Antibacterial activity against Pseudomonas aeruginosa ATCC 27853 = CCM 3955 assessed as inhibition of bacterial growth incubated for 24 hrs by microdilution assay; type: functional; conditions: not given

Row | SMILES | MIC [µg/mL]
11 | CCCCCCOP(=O)(CCN(CCCN)CCCN)OCCCCCCCCOP(=O)(CCN(CCCN)CCCN)OCCCCCC.Cl.Cl.Cl.Cl.Cl.Cl (stereo not drawn) | 16
12 | CCCCCCOP(=O)(CCN(CCCN)CCCN)OCCCCCCCCCCOP(=O)(CCN(CCCN)CCCN)OCCCCCC.Cl.Cl.Cl.Cl.Cl.Cl (stereo not drawn) | 4

tested on: not listed separately; assay: Hemolytic activity in human RBC assessed as haemoglobin release measured after 3 hr; type: toxicity, cell-based, Erythrocyte; conditions: red blood cells (erythrocytes)

Row | SMILES | HC50 at 3 h [µg/mL]
13 | CCCCCCOP(=O)(CCN(CCCN)CCCN)OCCCCCCCCOP(=O)(CCN(CCCN)CCCN)OCCCCCC.Cl.Cl.Cl.Cl.Cl.Cl (stereo not drawn) | > 500
14 | CCCCCCOP(=O)(CCN(CCCN)CCCN)OCCCCCCCCCCOP(=O)(CCN(CCCN)CCCN)OCCCCCC.Cl.Cl.Cl.Cl.Cl.Cl (stereo not drawn) | 743

tested on: not listed separately; assay: Gradient chromatographic hydrophobicity index of the compound at pH 3.7 by HPLC analysis; type: ADME; conditions: not given

Row | SMILES | CHI
15 | CCCCCCOP(=O)(CCN(CCCN)CCCN)OCCCCCCCCOP(=O)(CCN(CCCN)CCCN)OCCCCCC.Cl.Cl.Cl.Cl.Cl.Cl (stereo not drawn) | 31.4
16 | CCCCCCOP(=O)(CCN(CCCN)CCCN)OCCCCCCCCCCOP(=O)(CCN(CCCN)CCCN)OCCCCCC.Cl.Cl.Cl.Cl.Cl.Cl (stereo not drawn) | 34.8

tested on: Staphylococcus epidermidis; assay: Antibacterial activity against Staphylococcus epidermidis CCM 7221 assessed as inhibition of bacterial growth incubated for 24 hrs by microdilution assay; type: functional; conditions: not given

Row | SMILES | MIC [µg/mL]
17 | CCCCCCOP(=O)(CCN(CCCN)CCCN)OCCCCCCCCOP(=O)(CCN(CCCN)CCCN)OCCCCCC.Cl.Cl.Cl.Cl.Cl.Cl (stereo not drawn) | 0.5
18 | CCCCCCOP(=O)(CCN(CCCN)CCCN)OCCCCCCCCCCOP(=O)(CCN(CCCN)CCCN)OCCCCCC.Cl.Cl.Cl.Cl.Cl.Cl (stereo not drawn) | 0.5

tested on: Staphylococcus aureus; assay: Antibacterial activity against methicillin resistant Staphylococcus aureus 4591/A assessed as reduction in microbial growth incubated for 24 hrs by microdilution assay; type: functional; conditions: not given

Row | SMILES | MIC [µg/mL]
19 | CCCCCCOP(=O)(CCN(CCCN)CCCN)OCCCCCCCCOP(=O)(CCN(CCCN)CCCN)OCCCCCC.Cl.Cl.Cl.Cl.Cl.Cl (stereo not drawn) | 2
20 | CCCCCCOP(=O)(CCN(CCCN)CCCN)OCCCCCCCCCCOP(=O)(CCN(CCCN)CCCN)OCCCCCC.Cl.Cl.Cl.Cl.Cl.Cl (stereo not drawn) | 1

tested on: Escherichia coli; assay: Antibacterial activity against multidrug-resistant Escherichia coli CE5556 expressing CTX-M-15 assessed as reduction in microbial growth incubated for 24 hrs by microdilution assay; type: functional; conditions: not given

Row | SMILES | MIC [µg/mL]
21 | CCCCCCOP(=O)(CCN(CCCN)CCCN)OCCCCCCCCOP(=O)(CCN(CCCN)CCCN)OCCCCCC.Cl.Cl.Cl.Cl.Cl.Cl (stereo not drawn) | 8
22 | CCCCCCOP(=O)(CCN(CCCN)CCCN)OCCCCCCCCCCOP(=O)(CCN(CCCN)CCCN)OCCCCCC.Cl.Cl.Cl.Cl.Cl.Cl (stereo not drawn) | 8

tested on: Enterococcus faecium; assay: Antibacterial activity against vancomycin resistant Enterococcus faecium 419/ANA assessed as reduction in microbial growth incubated for 24 hrs by microdilution assay; type: functional; conditions: not given

Row | SMILES | MIC [µg/mL]
23 | CCCCCCOP(=O)(CCN(CCCN)CCCN)OCCCCCCCCOP(=O)(CCN(CCCN)CCCN)OCCCCCC.Cl.Cl.Cl.Cl.Cl.Cl (stereo not drawn) | > 128
24 | CCCCCCOP(=O)(CCN(CCCN)CCCN)OCCCCCCCCCCOP(=O)(CCN(CCCN)CCCN)OCCCCCC.Cl.Cl.Cl.Cl.Cl.Cl (stereo not drawn) | 32

tested on: Pseudomonas aeruginosa; assay: Antibacterial activity against multidrug-resistant Pseudomonas aeruginosa assessed as reduction in microbial growth incubated for 24 hrs by microdilution assay; type: functional; conditions: not given

Row | SMILES | MIC [µg/mL]
25 | CCCCCCOP(=O)(CCN(CCCN)CCCN)OCCCCCCCCOP(=O)(CCN(CCCN)CCCN)OCCCCCC.Cl.Cl.Cl.Cl.Cl.Cl (stereo not drawn) | 64
26 | CCCCCCOP(=O)(CCN(CCCN)CCCN)OCCCCCCCCCCOP(=O)(CCN(CCCN)CCCN)OCCCCCC.Cl.Cl.Cl.Cl.Cl.Cl (stereo not drawn) | 8

tested on: not listed separately; assay: Cytotoxicity against human HepG2 cells assessed as reduction in cell viability; type: toxicity, cell-based; conditions: not given

Row | SMILES | CC50 [µM]
27 | CCCCCCOP(=O)(CCN(CCCN)CCCN)OCCCCCCCCOP(=O)(CCN(CCCN)CCCN)OCCCCCC.Cl.Cl.Cl.Cl.Cl.Cl (stereo not drawn) | > 99
28 | CCCCCCOP(=O)(CCN(CCCN)CCCN)OCCCCCCCCCCOP(=O)(CCN(CCCN)CCCN)OCCCCCC.Cl.Cl.Cl.Cl.Cl.Cl (stereo not drawn) | 17.5
